{"source": "patent US8623906B2", "about": "“Carboxy isatin hydrazones and their esters as Shp2 inhibitors” (H. Lee Moffitt Cancer Center and Research Institute, Inc., priority 2009, dated 2014)", "molecules": {"B1": {"name": "IFN-γ: interferon gamma used to stimulate HT-29 cells, alone or combined with SPI-112Me (protein, UniProt P01579 24-161, looked up)", "Interferon gamma": "QDPYVKEAENLKKYFNAGHSDVADNGTLFLGILKNWKEESDRKIMQSQIVSFYFKLFKNFKDDQSIQKSVETIKEDMNVKFFNSNKKKRDDFEKLTNYSVTDLNVQRKAIHELIQVMAELSPAAKTGKRKRSQMLFRG"}}, "key": {"[1]": {"system": "GST-Shp2 PTP domain protein", "format": "biochemical", "description": "All reactions were monitored by thin layer chromatography (TLC) or ^1H NMR. Some products, which could not be purified by simply washing, were purified by Flashmaster chromatography. […] After the purity and structure were confirmed, samples were tested for IC50 by DiFMUP assay, seen in Table 1, appended.\nCurve fitting and IC50 were obtained using the GraphPad Prism program (GraphPad Software)."}, "[2]": {"system": "Shp2 in MDA-MB-468 cells", "format": "cell-based", "description": "(§1) To measure Shp2 PTP activity in immune complexes, cells were lysed in ice-cold PTP lysis buffer [25 mM Hepes, pH 7.4, 150 mM NaCl, 1 mM DTT, 2 mM EDTA, 0.5% Triton X-100, 1:50 diluted protease inhibitor cocktail (Roche, Basel, Switzerland)]. Cell lysate supernatants (0.2 mg/each) were incubated with an anti-Shp2 antibody (Santa Cruz Biotechnology, Santa Cruz, Calif.) or with an anti-Flag antibody M2 (Sigma-Aldrich, St. Louis, Mo.) plus protein G-Sepharose for 2 h at 4° C. Immunoprecipitates were washed twice with the PTP lysis buffer and twice with the Reaction Buffer A (25 mM Hepes, pH 7.4, 50 mM NaCl, 1 mM DTT, 0.05% Triton X-100). Each Shp2 immune complex was resuspended in 100 μl of reaction buffer containing 50 μM DiFMUP and incubated at room temperature for 20 min. After a brief centrifugation, supernatants were transferred into 96-well plates and the DiFMU fluorescence signal was measured. The remaining immune complex pellets were used for immunoblotting analysis of Shp2 protein."}, "[3]": {"system": "Shp2^E76K in TF-1/Shp2^E76K cells", "format": "cell-based", "description": "as §1"}, "[4]": {"system": "pISRE-Luc in HT-29 cells", "assay": "ISRE luciferase reporter assay", "format": "cell-based", "conditions": "50 U/ml IFN-γ alone, 6 h", "description": "Luciferase reporter assays were conducted using HT-29 cells (5×10^5 cells/each in 12-well plate) were co-transfected with 1.6 μg pISRE-Luc (Clontech, Mountain View, Calif.) and 0.4 μg β-gal plasmids with LipofectAMINE 2000 reagent. Eighteen hours after transfection, cells were incubated in fresh medium, pretreated with indicated concentrations of SPI-112Me or mocked treated for 2 h, and then stimulated with 50 U/ml IFN-γ for 6 h or left unstimulated. Luciferase and β-galactosidase activities were determined as described (Ren, et al., Shp2E76K mutant confers cytokine-independent survival of TF-1 myeloid cells by up-regulating Bcl-XL. J Biol Chem 2007; 282:36463-73). The luciferase activity was then normalized to β-galactosidase-galactosidase activity as an internal control for transfection efficiency."}, "[5]": {"system": "HT-29 cells", "assay": "Viable cell number (CellTiterGlo), 4 days, Bliss synergism", "conditions": "IFN-γ 100 U/ml alone", "protocol": "TF-1/Shp2^E76K and HT-29 Cells (1,000 cells/well in triplicate) were plated in 96-well plates in RPMI160/10% FBS plus test agent(s) in a total volume of 100 μl. […] After incubation for 4 days at 37° C./5% CO2, relative viable cell number was measured using the CelltiterGlo reagent (Promega) following the supplier's instruction.\nAssume X is the fraction of inhibition caused by the first agent, Y is the fraction of inhibition caused by the second agent, and Z is the fraction of inhibition caused by the combination of both agents,\nIf Z=X+Y−XY, then the effect of two agents is additive.\nIf Z>X+Y−XY, then the effect of two agents is synergistic.\nIf Z<X+Y−XY, then the effect of two agents is antagonistic."}}, "note": "Like-named read-outs stand apart in the source and are kept apart here."}
{"molecule": "O=C(O)/C=C/C(=O)N1CCc2cc(S(=O)(=O)N3CCN(c4cccc(Cl)c4)CC3)ccc21", "note": "[JHE-01-129A]", "values": [{"measurement": "IC50", "setting": "[1]", "value": 2.8, "unit": "µM"}]}
{"molecule": "O=C(O)CCC(=O)N1CCCc2cc(S(=O)(=O)N3CCN(c4cccc(Cl)c4)CC3)ccc21", "note": "[JHE-02-023]", "values": [{"measurement": "IC50", "setting": "[1]; Table 1, DiFMUP assay", "value": "37.3 ± 5.3", "unit": "µM"}]}
{"molecule": "COC(=O)c1cccc(N/N=C2\\C(=O)Nc3ccc(S(=O)(=O)NCc4ccc(F)cc4)cc32)c1", "note": "[SPI-112Me, (Z)-3-(2-(5-(N-(4-fluorobenzyl)sulfamoyl)-2-oxoindolin-3-ylidene) hydrazinyl)benzoic acid methyl ester]", "values": [{"measurement": "IC50", "setting": "[1]", "value": "> 100", "unit": "µM"}, {"measurement": "reduction of EGF-stimulated Shp2 PTP activity", "setting": "[2]; 20 μM pretreatment, EGF 50 ng/ml, 10 min", "value": 77, "unit": "%"}, {"measurement": "effect on Shp2^E76K PTP activity in treated cells", "setting": "[3]; GM-CSF-free medium", "value": "lower Shp2^E76K PTP activity"}]}
{"molecule": "O=C(O)CCC(=O)N1CCc2cc(S(=O)(=O)N3CCN(c4ccc(C(=O)O)cc4)CC3)ccc21", "note": "[XW3-002]", "values": [{"measurement": "IC50", "setting": "[1]; Table 1, DiFMUP assay", "value": "6.1 ± 1.8", "unit": "µM"}]}
{"molecule": "COc1cccc(C(=O)N2CCc3cc(S(=O)(=O)N4CCN(c5cccc(Cl)c5)CC4)ccc32)c1", "note": "[JHE-02-035A]", "values": [{"measurement": "IC50", "setting": "[1]", "value": 7.8, "unit": "µM"}]}
{"molecule": "O=C(Nc1cccc(Cl)c1)N1CCc2cc(S(=O)(=O)N3CCN(c4cccc(Cl)c4)CC3)ccc21", "note": "[JHE-02-032A]", "values": [{"measurement": "IC50", "setting": "[1]", "value": 8.3, "unit": "µM"}]}
{"molecule": "O=C(c1ccc(Cl)c(Cl)c1)N1CCc2cc(S(=O)(=O)N3CCN(c4cccc(Cl)c4)CC3)ccc21", "note": "[JF023]", "values": [{"measurement": "IC50", "setting": "[1]", "value": 7.1, "unit": "µM"}]}
{"molecule": "COc1cccc(NC(=O)N2CCc3cc(S(=O)(=O)N4CCN(c5cccc(Cl)c5)CC4)ccc32)c1", "note": "[JHE-02-032B]", "values": [{"measurement": "IC50", "setting": "[1]", "value": 4.8, "unit": "µM"}]}
{"molecule": "O=C(O)CCC(=O)N1CCc2cc(S(=O)(=O)N3CCN(c4ccc(F)cc4)CC3)ccc21", "note": "[XW2-011B]", "values": [{"measurement": "IC50", "setting": "[1]", "value": 47.8, "unit": "µM"}]}
{"molecule": "O=C1Nc2ccc(S(=O)(=O)NCc3ccc(F)cc3)cc2/C1=N/Nc1cccc(C(=O)O)c1", "note": "[SPI-112, (Z)-3-(2-(5-(N-(4-fluorobenzyl)sulfamoyl)-2-oxoindolin-3-ylidene)hydrazinyl)benzoic acid]", "values": [{"measurement": "IC50", "setting": "[1]", "value": 2.6, "unit": "µM"}, {"measurement": "effect on EGF-stimulated Shp2 PTP activity", "setting": "[2]", "value": "did not affect"}, {"measurement": "effect on Shp2^E76K PTP activity in treated cells", "setting": "[3]", "value": "no decrease"}]}
{"molecule": "Cc1cccc(N2CCN(S(=O)(=O)c3ccc4c(c3)CCN4C(=O)CCC(=O)O)CC2)c1", "note": "[XW2-057]", "values": [{"measurement": "IC50", "setting": "[1]; Table 1, DiFMUP assay", "value": "3.4 ± 2.3", "unit": "µM"}]}
{"molecule": "B1", "values": [{"measurement": "activation of ISRE luciferase activity", "setting": "[4]", "value": 26, "unit": "%"}, {"measurement": "fraction of inhibition", "setting": "[5]", "value": 0.18}]}
